Each structure is given as a SMILES string.

For the assay, the target named is T1, Syk catalytic domain (aa 356-635 with a C-terminal His-tag) (Homo sapiens, UniProt P43405).
T1 construct: His-tag (C); made in house
The assay can be described thus: In vitro Syk kinase activity measured by trFRET, Syk catalytic domain. As to conditions: Syk catalytic domain (aa 356-635), trFRET, 0.001 mM ATP. In kind it is biochemical. In outline: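 Kinase reaction: 0.14 nM His-tagged catalytic domain, 0.2 μM biotin-TYR1 peptide, 0.001 mM ATP in 50 mM MOPSO pH 6.5 with MgCl2, MnCl2, DTT, BSA, vanadate, ~60 min at rt, then EDTA quench. Phosphoproduct detected by trFRET (Eu anti-pTyr antibody/streptavidin-APC, 665 nm emission); IC50 from signal in linear range.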
One may read the IC50 as the concentration that gives 50% inhibition. Low values mean greater potency, high ones weaker potency. As to `CN(C)S(=O)(=O)c1cccc(-c2cc3c(ncc4cnn(C)c43)[nH]2)c1` [N.1.32], the IC50 was less than 100 nM. Next, `CNS(=O)(=O)c1cccc(-c2cc3c(ncc4cnn(C)c43)[nH]2)c1` [N.1.33]: less than 100 nM; `Cn1ncc2cnc3[nH]c(-c4cccc(S(=O)(=O)NCCO)c4)cc3c21` [N.1.34]: less than 100 nM. The result for `CCc1c(-c2cn(C)c3ccc(OC)cc23)[nH]c2ncc3cnn(C)c3c12` [N.1.35] reads 1000 to 10000 nM. The result for `CCc1c(-c2ccc(C(=O)NCCN3CCOCC3)cc2)[nH]c2ncc3cnn(C)c3c12` [N.1.36] reads 100 to 1000 nM. `CCc1c(-c2cn(C)nc2C)[nH]c2ncc3cnn(C)c3c12` [N.1.37] showed an IC50 of 1000 to 10000 nM. The result for `CCc1c(-c2cnn(C)c2C)[nH]c2ncc3cnn(C)c3c12` [N.1.38] reads 1000 to 10000 nM. Next, `CCCNC(=O)c1cccc(-c2[nH]c3ncc4cnn(C)c4c3c2CC)c1` [N.1.39]: 1000 to 10000 nM. `CCc1c(-c2cccc(S(=O)(=O)N(CC)CC)c2)[nH]c2ncc3cnn(C)c3c12` [N.1.40] gave an IC50 of 1000 to 10000 nM. Next, `Cn1ncc2cnc3[nH]c(-c4cccc(S(=O)(=O)NCCN5CCOCC5)c4)cc3c21` [N.1.41]: 100 to 1000 nM; `COCCNS(=O)(=O)c1cccc(-c2cc3c(ncc4cnn(C)c43)[nH]2)c1` [N.1.42]: 100 to 1000 nM. Next, `CCc1c(-c2ccc(OC)cc2)[nH]c2ncc3cnn(C)c3c12` [N.1.43]: 100 to 1000 nM; `CCc1c(-c2cnn(C)c2)[nH]c2ncc3cnn(C)c3c12` [N.1.44]: 100 to 1000 nM. Next, `CCc1c(-c2ccc(OCCN3CCOCC3)cc2)[nH]c2ncc3cnn(C)c3c12` [N.1.45]: 100 to 1000 nM; `Cn1ccc2cc(-c3cc4c(ncc5cnn(C)c54)[nH]3)ccc21` [N.1.46]: 100 to 1000 nM; `Cc1ccc(-c2cc3c(ncc4cnn(C)c43)[nH]2)c(C)c1` [N.1.47]: 1000 to 10000 nM.

The compound `COc1ccc2c(c1)c(-c1nc(C3CCCCC3)n3c1cnc1[nH]ccc13)cn2C` [N.1.48] yielded an IC50 of 1000 to 10000 nM. The result for `CC(C)(O)c1ccc(-c2nc(C3CCCCC3)n3c2cnc2[nH]ccc23)cc1` [N.1.49] reads less than 100 nM. Next, `Cc1nc(-c2ccc(C(C)(C)O)cc2)c2cnc3[nH]ccc3n12` [N.1.50, 2-(4-(1-methyl-6H-imidazo[1,5-a]pyrrolo[2,3-e]pyrazin-3-yl)phenyl)propan-2-ol]: less than 100 nM; `CC(C)(O)c1ccc(-c2nc(C3CC[C@H](NS(=O)(=O)C4CC4)C3)n3c2cnc2[nH]ccc23)cc1` (stereo partly shown) [N.1.51]: less than 100 nM; `C=C(C)c1ccc(-c2nc(C3CC[C@H](NS(=O)(=O)C4CC4)C3)n3c2cnc2[nH]ccc23)cc1` (stereo partly shown) [N.1.52]: 100 to 1000 nM. `CC(C)(O)c1ccc(-c2ncn3c2cnc2[nH]ccc23)cc1` [N.1.53] displayed an IC50 of less than 100 nM. `COc1ccc(-c2nc(C)n3c2cnc2[nH]ccc23)cc1` [N.1.54] displayed an IC50 of less than 100 nM.

In turn, `COc1ccc2c(c1)c(-c1nc(C)n3c1cnc1[nH]ccc13)cn2C` [N.1.55] came in with an IC50 of 100 to 1000 nM. Next, `Cc1ccc(-c2nc(C)n3c2cnc2[nH]ccc23)c2cc[nH]c12` [N.1.57]: 1000 to 10000 nM; `CC(C)(O)c1ccc(-c2nc(C(F)(F)F)n3c2cnc2[nH]ccc23)cc1` [N.1.58]: 100 to 1000 nM; `CN(C)c1nc(-c2ccc(C(C)(C)O)cc2)c2cnc3[nH]ccc3n12` [N.1.59]: less than 100 nM. Next, `CCc1c[nH]c2ncc3c(-c4ccc(C(C)(C)O)cc4)nn(C)c3c12` [N.1.60]: 1000 to 10000 nM; `CS(=O)(=O)c1ccc(-c2nc([C@H]3CCCNC3)n3c2cnc2[nH]ccc23)cc1` [N.1.61]: 100 to 1000 nM; `CS(=O)(=O)c1ccc(-c2nc(C3CCCN(C(=O)CCO)C3)n3c2cnc2[nH]ccc23)cc1` (stereo not shown) [N.1.62]: 1000 to 10000 nM.

In turn, `COCCC(=O)N1CCCC(c2nc(-c3ccc(S(C)(=O)=O)cc3)c3cnc4[nH]ccc4n23)C1` (stereo not shown) [N.1.63] yielded an IC50 of 1000 to 10000 nM. The result for `CN(C)CC1CCN(c2nc(-c3ccc(S(C)(=O)=O)cc3)c3cnc4[nH]ccc4n23)C1` (stereo not shown) [N.1.64] reads 1000 to 10000 nM; that for `CC(C)(O)c1ccc(-c2nc(N3CCC(CN)C3)n3c2cnc2[nH]ccc23)cc1` (stereo not shown) [N.1.66], less than 100 nM. The result for `CCc1c[nH]c2ncc3c(-c4ccc(OC)c(F)c4)nn(C)c3c12` [N.1.67] reads 100 to 1000 nM; that for `CCc1c[nH]c2ncc3c(-c4ccc5nccnc5c4)nn(C)c3c12` [N.1.68], 1000 to 10000 nM. The result for `CCc1c[nH]c2ncc3c(-c4ccc(OC(C)C)cc4)nn(C)c3c12` [N.1.69] reads 100 to 1000 nM; that for `CCc1c[nH]c2ncc3c(-c4ccc(C(=O)NC5CC5)cc4)nn(C)c3c12` [N.1.70], 100 to 1000 nM; that for `CCc1c[nH]c2ncc3c(-c4ccc(CO)cc4)nn(C)c3c12` [N.1.71], 100 to 1000 nM. Consider `CCc1c[nH]c2ncc3c(-c4ccc(S(N)(=O)=O)cc4)nn(C)c3c12` [N.1.72], for which the IC50 lay in the range of 100 to 1000 nM. `CCc1c[nH]c2ncc3c(-c4ccsc4)nn(C)c3c12` [N.1.73] came in with an IC50 of 100 to 1000 nM. Next, `CCc1c[nH]c2ncc3c(-c4ccc(OC)cc4)nn(C)c3c12` [N.1.74]: 1000 to 10000 nM; `CCc1c[nH]c2ncc3c(-c4cccnc4)nn(C)c3c12` [N.1.75]: 1000 to 10000 nM. The result for `CCc1c[nH]c2ncc3c(-c4cnn(C)c4)nn(C)c3c12` [N.1.76] reads 100 to 1000 nM. Next, `CCc1c[nH]c2ncc3c(-c4cc(OC)c(OC)c(OC)c4)nn(C)c3c12` [N.1.77]: 1000 to 10000 nM; `CCc1c(-c2ccc(OCCOC)cc2)[nH]c2ncc3cnn(C)c3c12` [N.1.79]: 100 to 1000 nM. Compound `CCc1c(-c2ccc(OCCN(C)C)cc2)[nH]c2ncc3cnn(C)c3c12` [N.1.80] showed an IC50 of 1000 to 10000 nM. The result for `COc1ccc2c(c1)c(-c1cc3c(ncc4cnn(C)c43)[nH]1)cn2C(C)C` [N.1.81] reads 100 to 1000 nM; that for `CC(C)n1cc(-c2cc3c(ncc4cnn(C)c43)[nH]2)c2ccccc21` [N.1.82], 100 to 1000 nM; that for `COc1ccc2c(c1)c(-c1cc3c(ncc4cnn(C)c43)[nH]1)nn2C` [N.1.83], 100 to 1000 nM. The result for `CC(C)(O)c1ccc(-c2nc(C3CCOCC3)n3c2cnc2[nH]ccc23)cc1` [N.1.84] reads 100 to 1000 nM; that for `COc1ccc(-c2nc(N3CCN(C)CC3)n3c2cnc2[nH]ccc23)cc1` [N.1.85], 1000 to 10000 nM; that for `COc1ccc(-c2nc(C3CCN(C)CC3)n3c2cnc2[nH]ccc23)cc1` [N.1.86], 1000 to 10000 nM.

`COc1ccc(-c2nc(C3CC3)n3c2cnc2[nH]ccc23)cc1` [N.1.87] showed an IC50 of less than 100 nM.

For `COCCc1nc(-c2ccc(OC)cc2)c2cnc3[nH]ccc3n12` [N.1.88], the IC50 was in the range of 100 to 1000 nM. For `COc1ccc(-c2nc(CN(C)C)n3c2cnc2[nH]ccc23)cc1` [N.1.89], the IC50 is 1000 to 10000 nM. The result for `CS(=O)(=O)c1ccc(-c2ncn3c2cnc2[nH]ccc23)cc1` [N.1.90] reads less than 100 nM. Next, `COc1ccc(-c2nc(C(C)C)n3c2cnc2[nH]ccc23)cc1` [N.1.91]: 100 to 1000 nM; `CCCc1nc(-c2ccc(OC)cc2)c2cnc3[nH]ccc3n12` [N.1.92]: less than 100 nM; `COc1ccc(-c2nc(CNC3CCCCC3O)n3c2cnc2[nH]ccc23)cc1` (stereo not shown) [N.1.93]: 1000 to 10000 nM. `CS(=O)(=O)c1ccc(-c2nc(CC3CNCCO3)n3c2cnc2[nH]ccc23)cc1` (stereo not shown) [N.1.94] displayed an IC50 of 100 to 1000 nM. Next, `CN1CCN(C(=O)CCO)C[C@@H]1c1nc(-c2ccc(C(C)(C)O)cc2)c2cnc3[nH]ccc3n12` [N.1.95]: 100 to 1000 nM; `CN1CCN(Cc2nc(-c3ccc(C(C)(C)O)cc3)c3cnc4[nH]ccc4n23)CC1` [N.1.96]: 1000 to 10000 nM. Next, `CC(C)(O)c1ccc(-c2nc(CN3CCCNCC3)n3c2cnc2[nH]ccc23)cc1` [N.1.97]: 100 to 1000 nM.

The compound `COc1ccc(-c2ncn3c2cnc2[nH]ccc23)cc1` [N.1.98] returned an IC50 of less than 100 nM.

Compound `Cc1nc(-c2ccc(C3(O)CCN(C(=O)OC(C)(C)C)CC3)cc2)c2cnc3[nH]ccc3n12` [N.1.99] returned an IC50 of less than 100 nM. The result for `Cn1cc(-c2cc3c(ncc4cnn(C)c43)[nH]2)c2cnccc21` [N.1.100] reads 100 to 1000 nM; that for `Cn1cc(-c2cc3c(ncc4cnn(C)c43)[nH]2)c2cc(C(C)(C)O)ccc21` [N.1.101], less than 100 nM; that for `Cc1nc(-c2ccc(C(C)(C)O)cc2F)c2cnc3[nH]ccc3n12` [N.1.102], 100 to 1000 nM. The compound `Cc1nc(-c2ccc(C(C)(C)O)cc2Cl)c2cnc3[nH]ccc3n12` [N.1.103] yielded an IC50 of 1000 to 10000 nM. Next, `Cc1cc(C(C)(C)O)ccc1-c1nc(C)n2c1cnc1[nH]ccc12` [N.1.104]: 1000 to 10000 nM; `COc1ccc(-c2nc(CCN(C)C)n3c2cnc2[nH]ccc23)cc1` [N.1.105]: 1000 to 10000 nM.

Take `COc1ccc(-c2nnn3c2cnc2[nH]ccc23)cc1` [N.1.107]: the IC50 was in the range of 100 to 1000 nM.

Compound `Cc1nc(-c2ccc(C(C)(C)O)c(Cl)c2)c2cnc3[nH]ccc3n12` [N.1.108] displayed an IC50 of less than 100 nM.

With `CC(C)(O)c1ccc(-c2nc(-c3ccccc3CO)n3c2cnc2[nH]ccc23)cc1` [N.1.109], the IC50 is less than 100 nM. Next, `CC(C)(O)c1ccc(-c2ncn3c2cnc2[nH]cc(CO)c23)cc1` [N.1.110]: 100 to 1000 nM; `Cc1ccc2c(c1)c(-c1cc3c(ncc4cnn(C)c43)[nH]1)cn2C` [N.1.111]: less than 100 nM; `Cn1cc(-c2cc3c(ncc4cnn(C)c43)[nH]2)c2cc(OCCN3CCOCC3)ccc21` [N.1.112]: less than 100 nM.

Turning to `COc1ccc(-c2nc(CO)n3c2cnc2[nH]ccc23)cc1` [N.1.113], the IC50 is 100 to 1000 nM. Next, `COc1ccc(-c2nc(CNC3CC3)n3c2cnc2[nH]ccc23)cc1` [N.1.114]: 1000 to 10000 nM.

These data come from patent publication US20140349970A1 (ABBVIE INC., priority 2009, published 2014).
